≈ marks a conversion by molar mass, not a printed value. Where two headings read alike, the source gives them in different places.
Columns and labels:
Assay type in all cases: cell-based, Streptococcus pneumoniae
[1] = test system: pneumococci (5 quinolone susceptible and 1 resistant strains); assay: Post-antibiotic effect (PAE) testing
Description: The post-antibiotic effect (PAE) (Craig, et al., V. Lorian (ed.) Antibiotics in Laboratory Medicine, Williams and Wilkins, Baltimore, pages 296-399, 1996) was determined by the viable plate count method, using Mueller-Hinton broth (MHB) supplemented with 5% lysed horse blood when testing pneumococci. […] Additionally, the one quinolone resistant strain was exposed at quinolone concentrations 5×MIC. Tubes containing 5 ml broth with antibiotic were inoculated with approximately 5×10^6 cfu/ml. Growth controls with inoculum but no antibiotic were included with each experiment. Tubes were placed in a shaking water bath at 35° C. for 1 h. At the end of the exposure period, cultures were diluted 1:1000 to remove antibiotic.
Viability counts were determined before exposure and immediately after dilution (0 h), and then every 2 h until tube turbidity reached a #1 McFarland standard. Inocula were prepared by suspending growth from an overnight blood agar plate in broth. The broth was incubated at 35° C. for 2-4 h in a shaking water bath until turbidity matched a #1 McFarland standard, and checked for viability by plate counts (Spangler, et al., Antimicrob. Agents Chemother. 41:2173-9176, 1997; Spangler, et al., Antimicrob. Agents Chemother. 42:1253-1255, 1998).
The PAE was defined as PAE=T-C; T=time required for viability counts of an antibiotic-exposed culture to increase by 1 log10 above counts immediately after dilution; C=corresponding time for growth control. For each experiment, viability counts (log10 cfu/ml) were plotted against time, and results expressed as the mean of two separate assays±S D (Craig, et al., V. Lorian (ed), Antibiotics in Laboratory Medicine, Williams and Wilkins, Baltimore, pages 296-329, 1996).

[2] = test system: penicillin susceptible and resistant pneumococcal strains (2 quinolone resistant); assay: Time-kill testing of 12 pneumococcal strains; details: for concentration at which bactericidal after 24 h: 12 penicillin susceptible and resistant pneumococcal strains, bactericidal = ≧3 log10 cfu/ml (99.9%) reduction
Description: For time-kill studies, glass tubes containing 5 ml cation-adjusted Mueller-Hinton broth (Difco)+5% lysed horse blood with doubling antibiotic concentrations were inoculated with 5×10^5 to 5×10^6 cfu/ml and incubated at 35° C. in a shaking water bath. […] Growth controls with inoculum but no antibiotic were included with each experiment (Pankuch, et al., Antimicrob. Agents Chemother. 38:2065-2072, 1994; Pankuch, et al., Antimicrob. Agents Chemother. 40:1653-1656, 1996).
Lysed horse blood was prepared as described previously. The bacterial inoculum was prepared by diluting a 16 h broth (medium as above) culture in the same medium. Dilutions required to obtain the correct inoculum (5×10^5-5×10^6 cfu/ml) were determined by prior viability studies using each strain (Pankuch, et al., Antimicrob. Agents Chemother. 38:2065-2072, 1994; Pankuch, et al., Antimicrob. Agents Chemother. 40: 1653-1656, 1996).
To inoculate each tube of serially diluted antibiotic, 50 μl of diluted inoculum was delivered by pipette beneath the surface of the broth. Tubes were then vortexed and plated for viability counts within 10 min (approximately 0.2 h). The original inoculum was determined by using the untreated growth control. Only tubes containing an initial inoculum within the range of 5×10^5 to 5×10^6 cfu/ml were acceptable (Pankuch, et al., Antimicrob. Agents Chemother. 38:2065-2072, 1994; Pankuch, et al., Antimicrob. Agents Chemother. 40:1653-1656, 1996).
Viability counts of antibiotic-containing suspensions were performed by plating ten-fold dilutions of 0.1 ml aliquots from each tube in sterile Mueller-t-Hinton broth onto trypticase soy agar 5% sheep blood agar plates (BBL). Recovery plates were incubated for up to 72 h. Colony Counts were performed on plates yielding 30-300 colonies. The lower limit of sensitivity of colony counts was 300 cfu/ml (Pankuch, et al., Antimicrob. Agents Chemother. 38:2065-2072, 1994; Pankuch, et al., Antimicrob. Agents Chemother. 40:1653-1656, 1996).
Time-kill assays were analysed by determining the number of strains which yielded a log10 cfu/ml of −1, −2 and −3 at 0, 3, 6, 12 and 24 h, compared to counts at time 0 h. Antimicrobials were considered bactericidal at the lowest concentration that reduced the original inoculum by ≧3 log10 cfu/ml (99.9%) at each of the time periods, and bacteriostatic if the inoculum was reduced by 0-3 log10 cfu/ml. […] The problem of bacterial carryover was addressed as described previously. For macrolide time-kill testing, only strains with MICs≦4.0 μg/ml were tested (Pankuch, et al., Antimicrob. Agents Chemother. 38:2065-9072, 1994; Pankuch, et al., Antimicrob. Agents Chemother. 40:1653-1656, 1996).

[3] = test system: quinolone susceptible pneumococci (ciprofloxacin MICs ≦4.0 μg/ml); assay: Agar dilution MICs of 207 quinolone susceptible pneumococcal strains; details: Streptococcus pneumoniae; for MIC90: read-out: MIC90
How it was run: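 Agar dilution MICs by prior methods on Mueller-Hinton agar with 5% sheep blood; S. pneumoniae ATCC 49619 among QC strains each run. Isolates were recent U.S. strains plus some from South Africa, Europe and Korea.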

[4] = 5×MIC, quinolone resistant strain
[5] = 10×MIC for 1 h, range over 5 quinolone susceptible strains
[6] = agar dilution, Penicillin I strains
[7] = agar dilution, Penicillin I strains, read-out: MIC range
[8] = agar dilution, Penicillin R strains
[9] = agar dilution, Penicillin S strains
[10] = agar dilution, all 207 strains (64 penicillin susceptible, 68 intermediate, 75 resistant)
[11] = agar dilution, Penicillin R strains, read-out: MIC range
[12] = agar dilution, Penicillin S strains, read-out: MIC range

SMILES	PAE [1, 4] [h]	PAE [1, 5] [h]	concentration at which bactericidal after 24 h ([2]; 24 h) [×MIC]	concentration at which uniformly bactericidal after 24 h ([2]; all 12 strains, 24 h) [µg/mL]	bactericidal activity for the two quinolone resistant pneumococcal strains [2]	MIC50 [3, 6] [µg/mL]	MIC90 [3, 6] [µg/mL]	MIC [3, 7] [µg/mL]	MIC50 [3, 8] [µg/mL]	MIC90 [3, 8] [µg/mL]	MIC50 [3, 9] [µg/mL]	MIC90 [3, 9] [µg/mL]	MIC50 [3, 10] [µg/mL]	MIC90 [3, 10] [µg/mL]	MIC ([3]; read-out: MIC range, agar dilution, Penicillin R strains) [µg/mL]	MIC ([3]; read-out: MIC range, agar dilution, Penicillin S strains) [µg/mL]	MIC [3, 11] [µg/mL]	MIC [3, 12] [µg/mL]
CO/N=C1\CN(c2nc3c(cc2F)c(=O)c(C(=O)O)cn3C2CC2)CC1CN (racemic) [Gemifloxacin, (R,S)-7-(3-aminomethyl-4-methoxyiminopyrrolidin-1-yl)-1-cyclopropyl-6-fluoro-4-oxo-1,4-dihydro-1,8-naphthyridine-3-carboxylic acid]	0.9	0.4 to 1.6	2	≤ 0.5	bactericidal at the microbroth MIC	0.03 (≈ 0.077 µM)	0.06 (≈ 0.154 µM)	0.008 to 0.25 (≈ 0.0205 to 0.642 µM)	0.03 (≈ 0.077 µM)	0.06 (≈ 0.154 µM)	0.03 (≈ 0.077 µM)	0.03 (≈ 0.077 µM)	0.03 (≈ 0.077 µM)	0.06 (≈ 0.154 µM)	0.004 to 0.125 (≈ 0.0103 to 0.321 µM)	0.008 to 0.125 (≈ 0.0205 to 0.321 µM)		
Cc1c(F)c(N2CCNC(C)C2)cc2c1c(=O)c(C(=O)O)cn2C1CC1 (stereo not shown) [Grepafloxacin, grepafloxacin]	1.5	0.3 to 2.6	4			0.125 (≈ 0.348 µM)	0.5 (≈ 1.39 µM)	0.03 to 0.5 (≈ 0.0835 to 1.39 µM)	0.25 (≈ 0.696 µM)	0.5 (≈ 1.39 µM)	0.125 (≈ 0.348 µM)	0.5 (≈ 1.39 µM)	0.125 (≈ 0.348 µM)	0.5 (≈ 1.39 µM)			0.03 to 0.5 (≈ 0.0835 to 1.39 µM)	0.03 to 1 (≈ 0.0835 to 2.78 µM)
C[C@@H]1CN(c2c(F)c(N)c3c(=O)c(C(=O)O)cn(C4CC4)c3c2F)C[C@H](C)N1 [Sparfloxacin, sparfloxacin]	1.5	0.3 to 2.0	2			0.5 (≈ 1.27 µM)	0.5 (≈ 1.27 µM)	0.06 to 2 (≈ 0.153 to 5.1 µM)	0.5 (≈ 1.27 µM)	0.5 (≈ 1.27 µM)	0.5 (≈ 1.27 µM)	1 (≈ 2.55 µM)	0.5 (≈ 1.27 µM)	0.5 (≈ 1.27 µM)			0.06 to 1 (≈ 0.153 to 2.55 µM)	0.03 to 1 (≈ 0.0765 to 2.55 µM)
N[C@@H]1[C@H]2CN(c3nc4c(cc3F)c(=O)c(C(=O)O)cn4-c3ccc(F)cc3F)C[C@@H]12 [Trovafloxacin, trovafloxacin]	1.3	0.3 to 3.0	4		bactericidal at the microbroth MIC	0.125 (≈ 0.3 µM)	0.25 (≈ 0.6 µM)	0.016 to 1 (≈ 0.0384 to 2.4 µM)	0.125 (≈ 0.3 µM)	0.25 (≈ 0.6 µM)	0.125 (≈ 0.3 µM)	0.25 (≈ 0.6 µM)		0.25 (≈ 0.6 µM)			0.03 to 0.25 (≈ 0.0721 to 0.6 µM)	0.03 to 0.5 (≈ 0.0721 to 1.2 µM)
